Reference: patent US12486270B2, “Receptor tyrosine kinase inhibitors for treatment of protein kinase modulation-responsive disease or disorder” (THE UNITED STATES OF AMERICA, as represented by the …, priority 2019, dated 2025)
pKd: −log10 of the molar value.

Key:
[1] = biological target: T1, EphA2 (Homo sapiens (Human), UniProt P29317); experiment: Binding affinity to EphA2 by microscale thermophoresis (MST); details: towards EphA2
Text: The binding affinities of the compounds to EphA2 were investigated by microscale thermophoresis (MST) (M. Jerabek-Willemsen et al., J. Mol. Struct. 2014, 1077, 101-113).

[2] = biological target: T1, EphA2; experiment: Endogenous EphA2 tyrosine phosphorylation by ELISA in RKO cell lysates; format: cell-based
Method: (§1) ELISA. ELISA plates (ThermoFisher Scientific, Immulon 4HBX, 3855) were coated overnight at 4° C. with capture antibody 75 ng/well in PBS, and blocked with 5% BSA (Sigma-Aldrich, St. Louis, MO) in PBS for two hours at room temperature. Capture antibodies for EphB4 was goat polyclonal antibody (R&D Systems AF3038); for EphA2 was goat polyclonal antibody (R&D Systems AF3035); 10 ug of cell lysate was applied to the ELISA well for two hours at room temperature. The amount of tyrosine phosphorylation was measured with pTyr-HRP antibody (R&D Systems, HAM1676). The ELISA was developed with 3,3′,5,5′-Tetramethylbenzidine (TMB) (ThermoFisher Scientific, 7588927) for 15 minutes and stopped with 1M H2SO4 (Sigma-Aldrich, 258105). Absorbance at 450 nm was measured using POLARstar Optima plate reader (BMG Labtech, Cary, NC). All conditions were tested in duplicate. pEphB2 was measured by ELISA (Ray Biotech, PEL-EphB2-Y) according to the manufacturer's recommendations.

[3] = tested on: SW620; experiment: Cell cycle analysis by flow cytometry in colorectal cancer cells (SW620); format: cell-based, human; details: 72 hours; compared to control and NVP/NVP-Iso
Method: Cell cycle was assessed by flow cytometry. Adherent cells were harvested, washed with PBS and fixed for 30 minutes in cold 70% ethanol at 4° C. Cells were washed twice with PBS, treated with 2.5 μg/mL RNaseA (ThermoFisher, 12091039) for 30 minutes at room temperature, and then stained with 10 μg propidium iodide for 15 minutes prior to analysis performed on FACS Canton (BD Biosciences; San Jose, CA) and cell cycled analyzed (FloJo software).

[4] = tested on: LC3B; experiment: LC3B autophagy marker by immunoblotting in HT-29 cells; format: cell-based, human; details: 72-hour incubation
Method: Western blotting. Protein lysates were separated by SDS-PAGE and then transferred to a nitrocellulose membrane. After blocking, membranes were incubated overnight with antibodies to LC3 (rabbit Monoclonal antibody, Cell Signaling).

[5] = biological target: EphB4 (Homo sapiens (Human), UniProt P54760); experiment: Endogenous EphB4 tyrosine phosphorylation by ELISA in HT29 cell lysates; format: cell-based
EphB4, sequence (P54760 16-987): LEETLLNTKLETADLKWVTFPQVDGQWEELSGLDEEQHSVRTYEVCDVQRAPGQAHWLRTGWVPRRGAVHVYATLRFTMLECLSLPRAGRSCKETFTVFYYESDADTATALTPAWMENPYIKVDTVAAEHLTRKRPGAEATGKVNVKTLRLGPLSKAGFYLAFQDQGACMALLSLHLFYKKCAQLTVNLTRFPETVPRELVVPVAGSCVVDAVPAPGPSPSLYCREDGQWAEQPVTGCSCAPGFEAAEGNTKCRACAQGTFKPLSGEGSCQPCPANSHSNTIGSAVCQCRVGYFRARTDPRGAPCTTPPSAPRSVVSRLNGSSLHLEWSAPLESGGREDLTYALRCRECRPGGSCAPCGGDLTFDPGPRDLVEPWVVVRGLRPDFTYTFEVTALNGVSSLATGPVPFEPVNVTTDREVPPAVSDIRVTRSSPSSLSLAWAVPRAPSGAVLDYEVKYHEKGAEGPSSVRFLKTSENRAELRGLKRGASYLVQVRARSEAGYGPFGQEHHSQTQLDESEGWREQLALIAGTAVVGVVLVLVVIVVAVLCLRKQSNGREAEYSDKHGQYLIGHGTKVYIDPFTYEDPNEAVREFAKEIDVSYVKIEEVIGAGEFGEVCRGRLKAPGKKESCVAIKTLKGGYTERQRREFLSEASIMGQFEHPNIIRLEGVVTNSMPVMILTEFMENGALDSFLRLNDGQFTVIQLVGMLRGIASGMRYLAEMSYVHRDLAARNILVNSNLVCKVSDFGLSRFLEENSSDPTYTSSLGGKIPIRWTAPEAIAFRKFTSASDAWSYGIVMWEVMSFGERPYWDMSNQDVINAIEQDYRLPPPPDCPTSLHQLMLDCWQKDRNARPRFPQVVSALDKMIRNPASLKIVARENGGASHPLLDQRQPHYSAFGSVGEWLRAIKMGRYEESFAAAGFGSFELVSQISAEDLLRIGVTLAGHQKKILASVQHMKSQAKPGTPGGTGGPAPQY
Method: as §1

[6] = biological target: EphB2 (Homo sapiens (Human), UniProt P29323); experiment: Endogenous EphB2 tyrosine phosphorylation by ELISA in Colo-205 cell lysates; format: cell-based
EphB2, sequence (P29323 19-1055): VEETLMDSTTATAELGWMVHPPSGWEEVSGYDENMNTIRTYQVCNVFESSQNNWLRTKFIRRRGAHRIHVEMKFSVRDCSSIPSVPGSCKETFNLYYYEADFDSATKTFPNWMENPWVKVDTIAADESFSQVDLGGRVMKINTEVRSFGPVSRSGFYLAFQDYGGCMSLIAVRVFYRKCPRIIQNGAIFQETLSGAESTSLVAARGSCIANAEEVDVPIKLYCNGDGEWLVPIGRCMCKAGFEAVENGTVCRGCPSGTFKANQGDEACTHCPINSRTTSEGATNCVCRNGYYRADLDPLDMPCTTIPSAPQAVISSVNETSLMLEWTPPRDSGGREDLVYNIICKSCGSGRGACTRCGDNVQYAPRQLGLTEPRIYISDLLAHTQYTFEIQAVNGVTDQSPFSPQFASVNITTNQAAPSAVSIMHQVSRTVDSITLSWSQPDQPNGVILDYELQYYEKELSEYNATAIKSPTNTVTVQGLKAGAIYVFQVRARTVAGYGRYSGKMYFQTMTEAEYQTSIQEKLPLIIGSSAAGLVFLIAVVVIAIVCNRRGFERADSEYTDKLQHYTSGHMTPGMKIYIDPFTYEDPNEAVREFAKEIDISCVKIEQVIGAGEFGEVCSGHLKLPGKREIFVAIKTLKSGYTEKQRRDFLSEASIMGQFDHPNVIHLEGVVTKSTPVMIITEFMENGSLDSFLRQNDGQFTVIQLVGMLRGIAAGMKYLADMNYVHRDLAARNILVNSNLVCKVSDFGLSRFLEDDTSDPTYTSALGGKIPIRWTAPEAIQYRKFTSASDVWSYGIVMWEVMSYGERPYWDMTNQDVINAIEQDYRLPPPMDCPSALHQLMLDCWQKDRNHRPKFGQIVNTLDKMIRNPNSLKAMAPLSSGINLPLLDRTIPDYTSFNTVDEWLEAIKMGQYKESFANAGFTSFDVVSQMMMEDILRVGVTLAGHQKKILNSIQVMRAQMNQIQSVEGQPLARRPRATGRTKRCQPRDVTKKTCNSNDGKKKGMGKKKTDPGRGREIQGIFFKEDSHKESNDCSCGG
Method: as §1

[7] = tested on: SW620 colorectal cancer cell; experiment: Cell death by flow cytometry after DRAQ5/PI staining, colorectal cancer cells (SW620); format: cell-based, human; details: 72 hours
Method: Cell viability was measured by flow cytometry. Briefly, floating and adherent cells were collected by centrifugation, pelleted and suspended in PBS −/− (ThermoFisher, 10010-049) supplemented with 1% BSA (Sigma, A2153), 5 mM EDTA (Qualify Biological, 351-027), 10 mM glucose (Sigma, D9434) and 10 mM HEPES (Corning, 25-060-CI). After the cells (1×10^6 cells/mL) were stained with 25 μM DRAQ5 (BioLegend, San Diego, CA; 424101) for 60 minutes and 2 μg propidium iodide (ThermoFisher, P3566) for 15 minutes, analysis was performed on a FACSCantoll (BD Biosciences, Franklin Lakes, NJ; 338962). Results were analyzed by FloJo software (FlowJo LLC, Ashland, OR).

[8] = tested on: SW620 cells; experiment: Cleaved caspase-3 immunofluorescence microscopy in colorectal cancer cells (SW620); format: cell-based, human; details: 72 hours
Method: Cell viability was also measured by detection of cell-associated cleaved caspase-3. Cells were grown on gelatin-coated glass chamber slides, fixed in 4% paraformaldehyde, immune-stained with rabbit monoclonal antibody to cleaved Caspase 3 (1:100 Cell Signaling Technology) followed by Alexa Fluor 488-conjugated anti-rabbit IgG (1:400 Invitrogen) and mounted with Vectastain containing DAPI (Vector Laboratories). The slides were imaged through a Zeiss LSM780 confocal microscope. Image quantification (cleaved Caspase-3^+ nucleiltotal nuclei) was performed by CellProfiler software.

[9] = tested on: MG63; experiment: MG63 proliferation (specificity control); format: cell-based, human; details: 125-2000 nM
[10] = tested on: LC3; experiment: LC3 autophagic puncta imaging in HT-29 cells transduced with fluorescent LC3; format: cell-based, human; details: 72 hours
Method: Autophagy-related cell death was assessed by evaluation of LC3 autophagy-associated protein. The cells were first induced to stably express fluorescent pK (pHluorin-mKate2) LC3 by lentiviral infection. The cells were subsequently grown on glass coverslips (ThermoFisher, 12-545-81) until 50% confluent. Coverslips were washed with PBS −/−, fixed with 4% PEA for 15 minutes at room temperature, washed with TBS, mounted with DAPI-containing mounting media, allowed to harden overnight and sealed. Coverslips were imaged on a confocal Zeiss 780 microscope. Images were analyzed by CellProfiler using automatic thresholding to calculate the number of nuclei (DAPI staining) and the number of puncta. The results are expressed as the percent cells with two or more puncta. […] Monolayer cell confluency overtime was measured by IncuCyte HD (Essen BioSciences) imaging.
Immunostaining and microscopy. […] Maximum intensity projections (Zen Software 2.3 Blue Edition; Carl Zeiss) were used for quantification using CellProfiler software (Kamentsky et al., Bioinformatics 2011, 27:1179-1180) with automatic thresholding. Integrated intensity of CD31 was measured. The percent Ki-67 positive cells was measured by calculating the number of Ki-67 positive cells/total number DAPI^+ nuclei. The area of cleaved Caspase-3 positive area/total area was calculated by CellProfiler with automatic threshold. […]

[11] = tested on: HUVEC; experiment: HUVEC proliferation (specificity control); format: cell-based, human; details: 125-2000 nM

T1 sequence (P29317 24-976): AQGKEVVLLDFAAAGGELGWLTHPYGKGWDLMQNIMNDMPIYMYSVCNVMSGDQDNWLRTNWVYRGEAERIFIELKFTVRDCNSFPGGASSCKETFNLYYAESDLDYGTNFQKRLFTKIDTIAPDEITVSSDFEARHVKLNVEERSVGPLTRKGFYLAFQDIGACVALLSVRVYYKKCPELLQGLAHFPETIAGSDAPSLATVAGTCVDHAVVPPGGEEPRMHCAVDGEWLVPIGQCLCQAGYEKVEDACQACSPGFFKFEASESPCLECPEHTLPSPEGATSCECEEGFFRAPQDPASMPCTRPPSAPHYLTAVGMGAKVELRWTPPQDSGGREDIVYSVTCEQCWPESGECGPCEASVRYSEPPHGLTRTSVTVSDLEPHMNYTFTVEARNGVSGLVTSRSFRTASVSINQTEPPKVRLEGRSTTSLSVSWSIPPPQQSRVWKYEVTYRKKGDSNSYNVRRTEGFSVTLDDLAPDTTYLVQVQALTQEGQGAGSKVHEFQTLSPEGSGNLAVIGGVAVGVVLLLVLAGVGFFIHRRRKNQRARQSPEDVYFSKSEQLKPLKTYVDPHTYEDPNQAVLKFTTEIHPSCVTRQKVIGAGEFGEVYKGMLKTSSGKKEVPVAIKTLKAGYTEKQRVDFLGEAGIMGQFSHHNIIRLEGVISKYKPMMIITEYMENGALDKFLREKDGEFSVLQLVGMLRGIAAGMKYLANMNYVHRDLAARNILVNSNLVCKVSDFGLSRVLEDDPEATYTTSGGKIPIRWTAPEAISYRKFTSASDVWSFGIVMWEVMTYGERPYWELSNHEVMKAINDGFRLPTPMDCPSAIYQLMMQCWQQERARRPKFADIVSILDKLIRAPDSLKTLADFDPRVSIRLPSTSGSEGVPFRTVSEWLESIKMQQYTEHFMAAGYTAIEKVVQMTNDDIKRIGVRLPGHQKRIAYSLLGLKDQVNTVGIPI

Row | Compound | pKd [1] | inhibitory activity for p-EphA2 compared to NVP ([2]; four hours treatment) | distribution of cells within the cell cycle [3] | induction of autophagosome marker LC3B (immunoblotting) [4] | inhibitory activity for p-EphB4 compared to NVP ([5]; four hours treatment) | inhibitory activity for p-EphB2 compared to NVP ([6]; four hours treatment) | colorectal cancer cell death by flow cytometry (DRAQ5/PI) [7] | cleaved caspase-3 detection in treated cells [8] | reduction of EphA2 phosphorylation ([2]; at 2 μM) | reduction of EphB4 phosphorylation ([5]; at 2 μM) | reduction of EphB2 phosphorylation ([6]; at 2 μM) | reduction of MG63 cell proliferation [9] | LC3-related autophagy puncta [10] | reduction of HUVECs proliferation [11]
1 | Cc1ccc(C(=O)Nc2cccc(C(F)(F)F)c2)cc1Nc1nc(-c2cnccn2)nc2c1cnn2C [@1, 4-Methyl-3-((1-methyl-6-(pyrazin-2-yl)-1H-pyrazolo[3,4-d]pyrimidin-4-yl)amino)-N-(3-(trifluoromethyl)phenyl)benzamide] | 8.52 | comparable or only slightly reduced inhibitory activity | marked reduction of the proportion of cells within the G2M phase | failure | comparable or only slightly reduced inhibitory activity | comparable or only slightly reduced inhibitory activity | no or minimal colorectal cancer cell death | only in a minority of cells |  |  |  |  |  | 
2 | Cc1ccc(C(=O)Nc2cccc(C(F)(F)F)c2)cc1Nc1nc(N2CCOCC2)nc(-n2ccnc2)n1 [@10, 3-((4-(1H-imidazol-1-yl)-6-morpholino-1,3,5-triazin-2-yl)amino)-4-methyl-N-(3-(trifluoromethyl)phenyl)benzamide] | 6.72 |  |  |  |  |  |  |  | marginal reduction | marginal reduction | marginal reduction | moderately inhibitory | also induced LC3B-related puncta | moderately inhibitory
